Laboratory results as given in BindingDB's records for patent US9828374 (Hoffmann-La Roche, 2017).

What follows are compounds tested against Trace amine-associated receptor 1 (Mus musculus, UniProt Q923Y8) (assay: Radioligand Binding Assay).
Chain of Trace amine-associated receptor 1 (Q923Y8 whole entry): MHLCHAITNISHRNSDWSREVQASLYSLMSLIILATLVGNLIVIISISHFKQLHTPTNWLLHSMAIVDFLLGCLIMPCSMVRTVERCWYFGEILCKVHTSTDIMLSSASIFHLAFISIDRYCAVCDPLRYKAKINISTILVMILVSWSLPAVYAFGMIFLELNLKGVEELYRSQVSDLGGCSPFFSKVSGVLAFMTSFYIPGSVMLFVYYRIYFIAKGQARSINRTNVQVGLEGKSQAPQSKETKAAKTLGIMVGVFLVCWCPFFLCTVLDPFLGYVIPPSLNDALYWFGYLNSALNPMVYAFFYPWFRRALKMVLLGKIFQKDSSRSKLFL
Procedure: Nonspecific binding was defined as the amount of [H]-(S)-4-[(ethyl-phenyl-amino)-methyl]-4,5-dihydro-oxazol-2-ylamine bound in the presence of 10 μM unlabeled ligand. All compounds were tested at a broad range of concentrations ([…]) in duplicates.
Compound `Brc1ccc2c(c1)CCN1CCNC[C@@H]21` [US9828374, Example 2] has a Ki of 0.18 µM. Compound `Fc1c(Nc2cc(Cl)nc(C(F)(F)F)n2)ccc2c1CCN1CCNC[C@@H]21` [US9828374, Example 34] has a Ki of 0.0795 µM. Compound `Cc1cc(Nc2ccc3c(c2)CCN2CCNC[C@@H]32)nc(OCC(F)(F)F)n1` [US9828374, Example 26] has a Ki of 0.041 µM. Compound `O=C(Nc1ccc2c(c1)CCN1CCNC[C@@H]21)c1cnc(C(F)(F)F)nc1` [US9828374, Example 4] has a Ki of 0.189 µM.
